# Experimental data reported in publication PMC11787520, “Structural basis of the bifunctionality of Marinobacter salinexigens ZYF650^T glucosylglycerol phosphorylase in glucosylglycerol catabolism” (The Journal of Biological Chemistry, 2024).
# Tests used:
# MsGGP [1] = target: T1, MsGGP (Marinobacter salinexigens, UniProt A0A5B0VBK8); assay: X-ray crystal structure, […] Å; format: binding; conditions: active site, together with glycerol
# T1 construct: gene gtfA; full length, 480 residues, subunit 54,844 Da, N-terminal His6 tag (pET28b), E. coli BL21(DE3); six protomers in asymmetric unit
# MsGGP [2] = target: T1, MsGGP; assay: X-ray crystal structure, […] Å; format: binding; conditions: active site of chains A and E; reaction intermediate
# MsGGP [3] = target: T2, MsGGP (Marinobacter salinexigens, UniProt A0A5B0VBK8, E231A); assay: ion exchange chromatography, activity relative to wild type; format: biochemical; conditions: 20 mM GG, 20 mM potassium phosphate, pH 6.6, 45 °C
# T2 construct: gene gtfA; full length, 480 residues, subunit 54,844 Da, N-terminal His6 tag (pET28b), E. coli BL21(DE3); six protomers in asymmetric unit
# MsGGP [4] = target: T3, MsGGP (Marinobacter salinexigens, UniProt A0A5B0VBK8, D289A); assay: as above; format: biochemical; conditions: 20 mM GG, 20 mM potassium phosphate, pH 6.6, 45 °C
# T3 construct: gene gtfA; full length, 480 residues, subunit 54,844 Da, N-terminal His6 tag (pET28b), E. coli BL21(DE3); six protomers in asymmetric unit
# MsGGP [5] = target: T4, MsGGP (Marinobacter salinexigens, UniProt A0A5B0VBK8, D190A); assay: as above; format: biochemical; conditions: 20 mM GG, 20 mM potassium phosphate, pH 6.6, 45 °C
# T4 construct: gene gtfA; full length, 480 residues, subunit 54,844 Da, N-terminal His6 tag (pET28b), E. coli BL21(DE3); six protomers in asymmetric unit
smiles,measurement,setting,value
OC[C@H]1O[C@H](O)[C@H](O)[C@@H](O)[C@@H]1O [glucose],"X-ray crystal structure, 2.5 Å",MsGGP [1],each protomer features an α-glucose and a glycerol molecule occupying the active site
O=P(O)(O)O[C@H]1O[C@H](CO)[C@@H](O)[C@H](O)[C@H]1O [α-D-glucose-1-phosphate],"X-ray crystal structure, 2.7 Å",MsGGP [2],the structure of MsGGP in complex with αGlc1-P was successfully determined
OCC(CO)O[C@H]1O[C@H](CO)[C@@H](O)[C@H](O)[C@H]1O [2-O-α-Glucosylglycerol],enzyme activity relative to wildtype,MsGGP [3],nearly complete loss of enzyme activity following the mutation of these residues to alanine
same,enzyme activity relative to wildtype,MsGGP [4],nearly complete loss of enzyme activity following the mutation of these residues to alanine
same,enzyme activity relative to wildtype,MsGGP [5],nearly complete loss of enzyme activity following the mutation of these residues to alanine
